The values below are quoted from earlier work in patent publication US20100125094A1, “PY[…] NICOTINIC ACETYLCHOLINE RECEPTORS” (AUSPEX PHARMACEUTICALS, INC., priority 2008, published 2010).

Each structure is given as a SMILES string.

As for `CN1CCCC1c1cccnc1` (centres unmarked) [Nicotine, 3-(1-methyl-pyrrolidin-2-yl)-pyridine], under “in the body”, the “half life of nicotine in the body” value is “around two”. The “time for nicotine to reach the brain” value (when inhaled, on average) was “about seven”.
